# Assay results reported in ChEMBL document CHEMBL3860104, “Fragment-Based Approach to the Development of an Orally Bioavailable Lactam Inhibitor of Lipoprotein-Associated Phospholipase A2 (Lp-PLA2)” (J Med Chem, 2016).
# Legend:
# [1] = Solubility in pH 7.4 PBS by CLND assay
# [2] = Lipophilicity, log D of the compound by chromatography; type: physicochemical
# [3] = Protein binding in rat plasma at 10 uM incubated for 4 hrs by LC/MS-MS based rapid equilibrium dialysis method; type: ADME, cell-free; settings: read-out: PPB (converted)
# [4] = biological target: Cytochrome P450 3A4 (Homo sapiens, UniProt P08684); test: Inhibition of CYP3A4 (unknown origin) expressed in Escherichia coli co-expressing human NADPH reductase using both 7-benzyloxyquinolone and diethoxyfluorescein substrate in presence of NADPH regenerating system incubated for 10 mins by spectrofluorometry; type: ADME
# Sequence of Cytochrome P450 3A4 (P08684 whole entry): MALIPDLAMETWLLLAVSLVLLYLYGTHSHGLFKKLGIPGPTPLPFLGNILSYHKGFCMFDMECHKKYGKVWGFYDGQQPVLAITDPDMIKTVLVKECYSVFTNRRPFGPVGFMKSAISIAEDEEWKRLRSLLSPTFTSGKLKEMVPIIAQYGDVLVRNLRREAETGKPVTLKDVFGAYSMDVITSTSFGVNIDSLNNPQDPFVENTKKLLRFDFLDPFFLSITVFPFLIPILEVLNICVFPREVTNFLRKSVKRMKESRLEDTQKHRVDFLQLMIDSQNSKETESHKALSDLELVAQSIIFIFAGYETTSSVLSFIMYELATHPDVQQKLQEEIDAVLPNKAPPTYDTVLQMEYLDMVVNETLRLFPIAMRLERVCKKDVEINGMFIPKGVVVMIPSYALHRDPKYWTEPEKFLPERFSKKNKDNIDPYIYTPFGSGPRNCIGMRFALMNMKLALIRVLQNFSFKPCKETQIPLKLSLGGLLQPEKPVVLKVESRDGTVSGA
# [5] = Permeability at pH 7.4 by PAMPA method; type: ADME; settings: read-out: permeability
# [6] = biological target: T1, Platelet-activating factor acetylhydrolase (Homo sapiens, UniProt Q13093)
# T1 sequence (Q13093 whole entry): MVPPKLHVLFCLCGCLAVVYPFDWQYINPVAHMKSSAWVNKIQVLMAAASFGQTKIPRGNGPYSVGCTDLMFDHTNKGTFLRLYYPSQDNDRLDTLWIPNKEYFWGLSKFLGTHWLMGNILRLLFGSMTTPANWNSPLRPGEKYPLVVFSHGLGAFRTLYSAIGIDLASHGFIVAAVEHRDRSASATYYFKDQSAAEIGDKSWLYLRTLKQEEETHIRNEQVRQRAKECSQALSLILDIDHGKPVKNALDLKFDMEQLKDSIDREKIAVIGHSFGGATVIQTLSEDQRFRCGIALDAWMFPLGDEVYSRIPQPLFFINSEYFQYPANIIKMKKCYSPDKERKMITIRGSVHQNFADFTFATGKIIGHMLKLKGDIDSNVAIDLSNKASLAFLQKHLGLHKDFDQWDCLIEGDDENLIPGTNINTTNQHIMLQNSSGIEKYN
# Description: Inhibition of Lp-PLA2 in whole human plasma pre-incubated for 15 mins before 2-thio-PAF substrate addition
# [7] = biological target: T1, Platelet-activating factor acetylhydrolase; remark: listed apart in the source
# Description: Inhibition of recombinant human Lp-PLA2 pre-incubated for 30 mins before PED6 fluorogenic substrate
# [8] = biological target: T1, Platelet-activating factor acetylhydrolase; remark: listed apart in the source
# Description: Inhibition of recombinant human Lp-PLA2 incubated for 20 mins by Thio-PAF assay
# [9] = Stability in rat blood assessed as compound remaining level; type: ADME, tissue-based
# [10] = Clearance in Han Wistar rat at 1 mg/kg, iv or 3 mg/kg, po administered as bolus dose by LC/MS-MS method; type: ADME, organism-based; settings: in vivo
# [11] = Half life in Han Wistar rat at 1 mg/kg, iv or 3 mg/kg, po administered as bolus dose by LC/MS-MS method; type: ADME, organism-based; settings: in vivo
# [12] = Volume of distribution at steady state in Han Wistar rat at 1 mg/kg, iv or 3 mg/kg, po administered as bolus dose by LC/MS-MS method; type: ADME, organism-based; settings: in vivo, read-out: Vdss
# [13] = Oral bioavailability in Han Wistar rat at 3 mg/kg administered as bolus dose by LC/MS-MS method; type: ADME, organism-based; settings: in vivo
# [14] = Protein binding in dog plasma at 10 uM incubated for 4 hrs by LC/MS-MS based rapid equilibrium dialysis method; type: ADME, cell-free, Canis lupus familiaris; settings: read-out: PPB (converted)
# [15] = Clearance in Beagle dog at 0.5/1 mg/kg, iv or 0.5 mg/kg, po by LC/MS-MS method; type: ADME, organism-based, Canis lupus familiaris; settings: in vivo
# [16] = Half life in Beagle dog at 0.5/1 mg/kg, iv or 0.5 mg/kg, po by LC/MS-MS method; type: ADME, organism-based, Canis lupus familiaris; settings: in vivo
# [17] = Volume of distribution at steady state in Beagle dog at 0.5/1 mg/kg, iv or 0.5 mg/kg, po by LC/MS-MS method; type: ADME, organism-based, Canis lupus familiaris; settings: in vivo, read-out: Vdss
# [18] = Oral bioavailability in Beagle dog at 0.5 mg/kg by LC/MS-MS method; type: ADME, organism-based, Canis lupus familiaris; settings: in vivo
# [19] = Solubility of the compound by quantitative NMR method; type: physicochemical
# [20] = Intrinsic clearance rat liver microsomes at 30 ug/mL pre-incubated for 7 mins before NADPH addition by LC/MS-MS method; type: ADME
structure (smiles),measurement,setting,value
CC1([C@@H]2CC(=O)N(CCOc3ccc(F)c(F)c3)C2)CCS(=O)(=O)CC1,solubility kinetic,[1],> 450 µM
same,chromatographic logD,[2],3.4
same,"fraction unbound at 4 h, 10 µM",[3],0.7
same,IC50,[4],> 50 µM
same,Papp,[5],17 ×10⁻⁶ cm/s
same,IC50,[6],0.1 µM
same,IC50,[7],0.086 µM
CC(C)C1CC(=O)N(CCOc2ccc(F)c(C#N)c2)C1 (racemic),IC50,[8],1.9 µM
CC1(C2CC(=O)N(CCOc3ccc(F)cc3)C2)CCS(=O)(=O)CC1 (racemic),chromatographic logD,[2],3.1
same,IC50,[6],1.5 µM
same,IC50,[7],0.76 µM
CC1(C2CC(=O)N(CCOc3ccc(F)c(C#N)c3)C2)CCS(=O)(=O)CC1 (racemic),chromatographic logD,[2],2.8
same,Stability,[9],100%
C[C@@]1(c2ccccc2)CC(=O)N(CCOc2ccc(F)c(C#N)c2)C1,IC50,[8],1.6 µM
CC1(C2CC(=O)N(CCOc3ccc(F)c(C#N)c3)C2)CCNCC1.Cl (racemic; form 2),solubility kinetic,[1],242 µM
same,logD,[2],1.5
same,"fraction unbound at 4 h, 10 µM",[3],0.81
same,IC50,[4],> 50 µM
same,Papp,[5],< 0.3 ×10⁻⁶ cm/s
same,clearance,[10],15 mL/min/kg
same,half-life,[11],2.4 h
same,Vd,[12],2 L/kg
same,bioavailability,[13],< 5%
CN1CCC(C)(C2CC(=O)N(CCOc3ccc(F)c(C#N)c3)C2)CC1 (racemic),solubility kinetic,[1],> 396 µM
same,"fraction unbound at 4 h, 10 µM",[3],0.71
same,"fraction unbound at 4 h, 10 µM",[14],0.56
same,IC50,[4],> 50 µM
same,Papp,[5],21 ×10⁻⁶ cm/s
CC(C)C1(C)CC(=O)N(CCOc2ccc(F)c(C#N)c2)C1 (racemic),IC50,[8],2 µM
CC(C)[C@@]1(C)CC(=O)N(CCOc2ccc(F)c(C#N)c2)C1,IC50,[6],13 µM
same,IC50,[8],5.4 µM
CC1(C)CCC(=O)N(CCOc2ccc(F)cc2)C1,IC50,[7],10 µM
CC1(C2CC(=O)N(CCOc3ccc(F)c(C#N)c3)C2)CCOCC1 (racemic),chromatographic logD,[2],3.7
same,IC50,[6],0.26 µM
same,IC50,[7],0.16 µM
CC1([C@H]2CC(=O)N(CCOc3ccc(F)c(C#N)c3)C2)CCS(=O)(=O)CC1,chromatographic logD,[2],2.8
CC1(C2CC(=O)N(CCOc3ccc(F)c(C#N)c3)C2)CCNCC1 (racemic; form 1),chromatographic logD,[2],1.5
CC(C)(C)C1CC(=O)N(CCOc2ccc(F)c(C#N)c2)C1 (racemic),IC50,[6],5.1 µM
same,IC50,[8],0.98 µM
CC(C)[C@]1(C)CC(=O)N(CCOc2ccc(F)c(C#N)c2)C1,IC50,[6],6.2 µM
same,IC50,[8],2.3 µM
CC1(C)CN(CCOc2ccc(F)cc2)C(=O)N1,IC50,[7],39 µM
CC1(C)CC(=O)N(CCOc2ccc(F)cc2)C1,IC50,[7],11 µM
CN1CCC(C)(C2CC(=O)N(CCOc3ccc(F)c(C#N)c3)C2)CC1.Cl (racemic),clearance,[10],24 mL/min/kg
same,half-life,[11],1.8 h
same,Vd,[12],3.2 L/kg
same,bioavailability,[13],52%
same,clearance,[15],8.6 mL/min/kg
same,half-life,[16],3.2 h
same,Vd,[17],2.5 L/kg
same,bioavailability,[18],76%
N#Cc1cc(OCCN2CC(c3ccccc3)CC2=O)ccc1F (racemic),IC50,[8],0.86 µM
CC1(C2CC(=O)N(CCOc3ccc(F)c(F)c3)C2)CCS(=O)(=O)CC1 (racemic),chromatographic logD,[2],3.4
same,clearance,[10],22 mL/min/kg
same,half-life,[11],0.35 h
same,Vd,[12],0.63 L/kg
same,bioavailability,[13],47%
same,IC50,[6],0.29 µM
same,IC50,[7],0.16 µM
CN1CC(=O)N(CCOc2ccccc2)C1=O,IC50,[7],1000 µM
CC(=O)N1CCC(C)(C2CC(=O)N(CCOc3ccc(F)c(C#N)c3)C2)CC1 (racemic),chromatographic logD,[2],2.9
same,IC50,[6],0.66 µM
same,IC50,[7],0.25 µM
CCN(CC)CCN(Cc1ccc(-c2ccc(C(F)(F)F)cc2)cc1)C(=O)Cn1c(SCc2ccc(F)cc2)nc(=O)c2c1CCC2 [DARAPLADIB],solubility kinetic,[1],8 µM
same,chromatographic logD,[2],6.3
CC1([C@@H]2CC(=O)N(CCOc3ccc(F)c(C#N)c3)C2)CCS(=O)(=O)CC1,solubility kinetic,[1],> 509 µM
same,solubility,[19],3500 µM
same,chromatographic logD,[2],3
same,"fraction unbound at 4 h, 10 µM",[3],0.8
same,"fraction unbound at 4 h, 10 µM",[14],0.75
same,IC50,[4],> 50 µM
same,Papp,[5],3.6 ×10⁻⁶ cm/s
same,CLH,[20],1.1 mL/min/g
same,clearance,[10],67 mL/min/kg
same,half-life,[11],0.34 h
same,Vd,[12],1.2 L/kg
same,clearance,[15],11 mL/min/kg
same,half-life,[16],1.3 h
same,Vd,[17],1.3 L/kg
CN1CCC(C)([C@H]2CC(=O)N(CCOc3ccc(F)c(C#N)c3)C2)CC1,chromatographic logD,[2],1.7
C[C@]1(c2ccccc2)CC(=O)N(CCOc2ccc(F)c(C#N)c2)C1,IC50,[8],1 µM
CC1(C)CC(=O)N(CCOc2ccc(F)c(C#N)c2)C1,IC50,[8],15 µM
same,IC50,[7],3 µM
O=C1NC2(CCCCC2)C(=O)N1CCOc1ccc(F)cc1,IC50,[7],14 µM
CN1C(=O)N(CCOc2ccccc2)C(=O)C1(C)C,IC50,[7],20 µM
